Calls of active or inactive are those of the source. The rule behind the calls is not given here.
The molecules below were run against Caspase-3 (Homo sapiens) + Caspase-9 (Homo sapiens) (UniProt P42574+P55211) (assay: CASP3 and CASP9 cascade activity modulators, specificity counterscreen for apoptotic protease activating factor 1 activator project, concentration-response, cell-free, fluorescence, leucine zipper CASP9, ultra-HTS actives (AID 588573)). Conditions: LZ-caspase-9/caspase-3 coupled fluorogenic activity assay.
Sequence of Caspase-3 (Homo sapiens) + Caspase-9 (Homo sapiens) (P42574 whole entry, looked up): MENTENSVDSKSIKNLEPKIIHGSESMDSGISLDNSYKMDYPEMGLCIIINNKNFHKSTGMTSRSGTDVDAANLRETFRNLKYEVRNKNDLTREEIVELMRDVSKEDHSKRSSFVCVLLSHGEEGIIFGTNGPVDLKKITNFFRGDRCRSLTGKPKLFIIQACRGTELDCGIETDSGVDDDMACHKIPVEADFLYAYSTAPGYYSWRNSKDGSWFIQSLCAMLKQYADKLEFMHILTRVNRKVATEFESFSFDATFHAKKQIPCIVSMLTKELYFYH
Sequence of Caspase-3 (Homo sapiens) + Caspase-9 (Homo sapiens) (P55211 whole entry, looked up): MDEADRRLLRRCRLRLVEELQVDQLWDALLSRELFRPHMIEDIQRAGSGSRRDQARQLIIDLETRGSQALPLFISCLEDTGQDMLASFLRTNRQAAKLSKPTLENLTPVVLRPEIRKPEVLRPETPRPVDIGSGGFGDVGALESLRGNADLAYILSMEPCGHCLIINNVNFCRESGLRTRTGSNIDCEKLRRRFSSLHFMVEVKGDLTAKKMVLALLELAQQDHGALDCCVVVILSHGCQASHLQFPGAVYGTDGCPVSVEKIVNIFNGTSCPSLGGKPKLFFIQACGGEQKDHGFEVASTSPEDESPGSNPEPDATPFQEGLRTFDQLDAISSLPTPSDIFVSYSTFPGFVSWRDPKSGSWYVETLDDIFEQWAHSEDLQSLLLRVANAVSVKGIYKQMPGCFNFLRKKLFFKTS

| EC50 | IC50 (inhibition of caspase signal) | Compound |
| --- | --- | --- |
| > 100 µM (inactive) | – | C=C(C)C(=O)Nc1cccc(C2=NOC3(C2)C[C@@H](C(N)=O)N(C(=O)/C=C/CC)C3)c1 (some centres undefined) |
| > 100 µM (inactive) | – | O=C(Nc1nc2ccsc2c(=O)s1)c1ccco1 |
| > 100 µM (inactive) | – | C=C(C)C(=O)Nc1cccc(C2=NOC3(C2)C[C@@H](C(N)=O)N(C(=O)c2cc([N+](=O)[O-])cc([N+](=O)[O-])c2C)C3)c1 (some centres undefined) |
| > 100 µM (inactive) | – | C=C(C)C(=O)Nc1cccc(C2=NOC3(C2)C[C@@H](C(N)=O)N(C(=O)C(=C)C)C3)c1 (some centres undefined) |
| > 100 µM (inactive) | – | C=CC1=C(C(=O)O)N2C(=O)[C@@H](NC(=O)/C(=N\OCC(=O)O)c3csc(N)n3)[C@H]2SC1 |
| > 100 µM (inactive) | – | C=CC1=C(C(=O)O)N2C(=O)[C@@H](NC(=O)/C(=N/OCC(=O)O)c3csc(N)n3)[C@H]2SC1 |
| > 100 µM (inactive) | – | COc1ccc([N+](=O)[O-])cc1NC(=O)CCS(=O)(=O)c1ccc(Br)cc1 |
| > 100 µM (inactive) | – | C=C(C)C(=O)Nc1cccc(C2=NOC3(C2)C[C@@H](C(N)=O)N(C(=O)/C(C)=C/C)C3)c1 (some centres undefined) |
| > 100 µM (inactive) | – | COC(=O)c1ccccc1-c1ccc(/C=C2\C(=O)N(c3ccccc3)N=C2c2ccccc2)o1 |
| > 100 µM (inactive) | – | CC(/C=C\c1cccnc1)=C/C(=O)O |
| > 100 µM (inactive) | – | CCOc1ccccc1NC(=O)CCS(=O)(=O)c1ccc(Br)cc1 |
| – | 23.6 µM | CCc1ccc(N=C2NC(=O)/C(=C/c3cc(Br)c(OCC(=O)O)c(OC)c3)S2)cc1 |
| > 100 µM (inactive) | – | CC(Cc1c[nH]c2ccccc12)C(=O)O (centres undefined) |
| > 100 µM (inactive) | – | N#CCCn1cc(C(CC(=O)c2ccc(Br)cc2)C(=O)O)c2ccccc21 (centres undefined) |
| > 100 µM (inactive) | – | CC(C)(CS(=O)(=O)[O-])NC(=O)CC[N+](C)(C)CCO |
| > 100 µM (inactive) | – | C=C(C)C(=O)Nc1cccc(C2=NOC3(C2)C[C@H](C(N)=O)N(C(=O)/C=C/C)C3)c1 (some centres undefined) |
| > 100 µM (inactive) | – | C=C(C)C(=O)Nc1cccc(C2=NOC3(C2)C[C@H](C(N)=O)N(C(=O)c2ccccc2C(=O)c2ccccc2)C3)c1 (some centres undefined) |

More lines, now with the values behind:

| Compound | EC50 | IC50 (inhibition of caspase signal) |
| --- | --- | --- |
| C=C(C)C(=O)Nc1cccc(C2=NOC3(C2)C[C@@H](C(N)=O)N(C(=O)/C=C/C=C/C)C3)c1 (some centres undefined) | > 100 µM (inactive) | – |
| CCN(CC)CCOc1ccc2c(c1)C(=NNC(=O)c1ccccn1)c1cc(OCCN(CC)CC)ccc1-2 | > 100 µM (inactive) | – |
| C=C(C)C(=O)Nc1cccc(C2=NOC3(C2)C[C@@H](C(N)=O)N(C(=O)CCCCC)C3)c1 (some centres undefined) | > 100 µM (inactive) | – |
| O=C(CCS(=O)(=O)c1ccc(Br)cc1)NCc1ccco1 | > 100 µM (inactive) | – |
| N#C/C(=C\c1ccc(OCc2ccc(Cl)cc2)cc1)C(=O)Nc1cccc(C(=O)O)c1 | – | 15.6 µM |
| Cc1cc(C)n(CC(C)C(=O)O)n1 (centres undefined) | > 100 µM (inactive) | – |
| CC(CNc1ccccc1O)C(=O)O (centres undefined) | > 100 µM (inactive) | – |
| C=C(C)C(=O)Nc1cccc(C2=NOC3(C2)C[C@H](C(N)=O)N(C(=O)c2ccccc2)C3)c1 (some centres undefined) | > 100 µM (inactive) | – |
| COc1cc([N+](=O)[O-])ccc1NC(=O)COC(=O)c1ccc(NC(N)=O)cc1 | > 100 µM (inactive) | – |
| CCOc1ccc(C(=O)/C=C/Nc2ccc(S(=O)(=O)N=C(N)N)cc2)cc1 | > 100 µM (inactive) | – |
| COc1ccc(/C=C2\SC(=S)N(CCC(=O)Nc3ccc(C(=O)O)cc3)C2=O)cc1OC | – | 14.6 µM |
| O=C1C2(CCCC13COC(c1ccc(O)cc1)OC3)COC(c1ccc(O)cc1)OC2 (centres undefined) | > 100 µM (inactive) | – |

— PubChem BioAssay AID588573 (Sanford-Burnham Center for Chemical Genomics, 2011)
